Tests used:
neutrophils = assay: Induction of reactive oxygen burst by neutrophils; assay type: cell-based, human; conditions: 1 ng/ml to 100 μg/ml; 15 min; DHE, flow cytometry
Protocol: Neutrophils were isolated from fresh blood of a healthy human donor by lysis of a red blood cell pellet that had been obtained by Ficoll-Paque sedimentation. The neutrophils (˜4×10^6 cells/ml) were incubated with 10 μg/ml dihydroethidium (DHE) (Sigma-Aldrich) in complete culture medium at 37° C. for 15 min alongside an aliquot of unstained cells to be tested as unstained control. This incubation was followed by treatment with Compound 1 at a range of concentrations (0, 1 ng/ml, 10 ng/ml, 100 ng/ml, 1 μg/ml, 10 μg/ml, 100 μg/ml) for 15 min. The generation of reactive oxygen species following incubation was determined using a FACS Canto flow cytometer to measure fluorescence due to oxidation of DHE to the ethidium ion.

[1] = tested on: chronic, non-healing wounds; assay: Veterinary case studies 1 to 7, non-healing wounds in dogs; assay type: in vivo, Canis lupus familiaris
Protocol: (§1) Seven dogs (Canis lupus familiaris) and one tree kangaroo (Dendrolagus humholzii) with chronic, non-healing wounds that were unresponsive to current veterinary standards-of-care for these indications were treated with Compound 1 by independent veterinarians. A second tree kangaroo and a spectacled flying fox (Pteropus conspicillatus) with wounds unsuited for initial treatment with current standards-of-care were also treated with Compound 1. All cases were managed as open wounds without the use of dressings or other bandaging during the course of treatment with Compound 1 and the subsequent period of wound resolution. Unless stated in individual case studies, no concomitant medications were used over the course of treatments with Compound 1.
Case notes: • Frail patient with severe osteoarthritis, considered a high anaesthetic risk for any surgical intervention. • Patient had persistent infected cyst on the back proximal to the tail that had not responded to regular draining and injection of the cyst with antibiotics (gentamycin, enrofloxacin, norocillin) over a 5 month period. • Patient presented with the burst cyst and elevated temperature. The cyst was cleaned to remove dead skin and then flushed with saline and chlorhexidene.
The wound area was fully healed by 63 days after treatment. • The wound on leg also responded quickly with eschar present in localised areas. By 14 days the eschar had largely shed and healthy underlying granulation tissue was observed.
Case notes: • Patient presented with a non-healing laceration due to a hunting accident that had been present on the left ear for more than 6 weeks. • Three treatments, each of 0.1 mL of 5 mg/mL gel formulation of Compound 1, were applied to the affected area at 8 day intervals. No concomitant medications were used during the course of treatment of the patient with Compound 1. • By 41 days after the first treatment with Compound 1 the wound had fully closed.
Case notes: • The patient presented with non-healing (infected and inflamed) sore on upper part of left ear and was treated for 10 weeks with standard-of-care protocols involving regular application of (i) a topical dermatological formulation (Neotopic) combining antibacterial (neomycin sulphate), anti-inflammatory (hydrocortisone) and anti-pruritic (lignocaine) agents, and (b) a commercial suspension (Auracol) with anti-inflammatory (prednisolone), antifungal (miconazole nitrate) and antibacterial (polymixin B sulphate) components. Prior to these treatments the patient was on an on-going course of low dose oral corticosteroids (macrolone) for treatment of chronic canine atopic dermatitis syndrome. • After 10 weeks of the standard-of-care protocol there was no sign of wound resolution. • A single treatment of 3 mL of a 5 mg/mL gel formulation of Compound 1 was applied to the affected area and within 15 minutes of application of Compound 1 there was discernable reddening of the treated area. • From 4 days after treatment with Compound 1 the patient recommenced low dose daily corticosteroids (macrolone) for treatment of the severe atopic dermatitis.
Case notes: • The patient presented with two non-healing wounds at the tip and base of the right ear and a non-healing wound on the snout that owner had observed present for more than 4 weeks. Possible origin was infected spider or other insect bites. • Two treatments, each of 0.1 mL of 5 mg/mL gel formulation of Compound 1, were applied to both affected areas on the ears at a 5 day interval.

[2] = tested on: chronic, non-healing wounds; assay: Veterinary clinical treatment of non-healing and difficult wounds, 10 pet animals (overall); assay type: in vivo, dogs, tree kangaroos, spectacled flying fox; conditions: eight completed cases; open wounds, no dressings
Protocol: Compound 1 has been used to treat to heal difficult wounds in 10 pet (i.e. privately owned and cared for) animals with the aim of improving second intention wound healing
as §1
Case and treatment notes for each of these patients are summarised below. Note that the return presentation of these animals to the treating veterinarians was often irregular and wound healing outcomes may have occurred well before the return assessment visits.

[3] = tested on: wounds following necrosis and sloughing of spontaneous tumours; assay: Resolution of wounds after sloughing of spontaneous tumours treated by intratumoural injection, canine; assay type: in vivo; conditions: for Average days from tumour slough to wound closure: Canine
Protocol: necrosis and sloughing of spontaneous tumours that had been treated by intratumoural injection of Compound 1 (30% 1,2 propanediol formulation at either 0.5 or 1.0 mg/mL concentration) in twenty-four companion animals are summarised in Table 17.
Note that all wounds were managed as open wounds and no bandaging, dressings, lotions or concomitant medications were used in any of these cases.

[4] = Case 1, 76 days following the final treatment
[5] = Case 5, 152 days after the initial treatment
[6] = Case 6, 83 days after treatment

SMILES: CC=C(C)C(=O)OC1C(C)C2(O)C(C3OC3(CO)C(O)C3(O)C(=O)C(C)=CC32)C2C(C)(C)C12OC(=O)C(C)CC (stereo not shown) [Compound 1, 12-tigloyl-13-(2-methylbutanoyl)-6,7-epoxy-4,5,9,12,13,20-hexahydroxy-1-tigliaen-3-one]
- production of reactive oxygen species (ROS) (neutrophils): induced the significant production of reactive oxygen species (ROS) in a dose-dependent manner
- wound status ([1]; Case 1, Bernese Mountain Dog, facial wound, gel 3 mg/mL x5, then 1 mL 0.5 mg/mL injected, 35 days following injection): infilled with healthy differentiating granulation tissue
- hair regrowth, % of the original wound area [1, 4]: greater than 95%
- wound outcome [1, 4]: healed and was infilled with normal tissue minimal scarring
- wound area as % of the area of the original wound ([1]; Case 2, Boxer, burst infected cyst, 0.5 mL gel 3 mg/mL, 5 days post treatment): less than 30%
- hair regrowth over the original wound area ([1]; Case 2, 30 days): greater than 70%
- wound outcome ([1]; Case 2, 30 days): resolved with normal tissue
- wound size as % of original size ([1]; Case 3, Chow Chow, two bite wounds, 0.4 mL gel 3 mg/mL each, 15 days post treatment): less than 40%
- wound outcome ([1]; Case 3, 46 days following treatment): completely resolved with normal tissue, no scarring and complete hair regrowth
- time to complete wound closure, facial wound ([1]; Case 4, Boxer, single 0.4 mL gel 5 mg/mL): ≤ 14 days
- hair cover, leg wound ([1]; Case 4, 63 days after treatment): greater than 95%
- time to fully healed wound area, facial wound ([1]; Case 4, single 0.4 mL gel 5 mg/mL): ≤ 63 days
- wound outcome, leg wound ([1]; Case 4, single 0.6 mL gel 5 mg/mL, 63 days after treatment): completely closed
- time to full wound closure ([1]; Case 5, Bull Arab, ear laceration, 3 x 0.1 mL gel 5 mg/mL at 8 day intervals, after first treatment): ≤ 41 days
- hair coverage over the original wound site [1, 5]: greater than 80%
- wound outcome [1, 5]: complete wound resolution, minimal scarring
- time to discernable reddening of the treated area ([1]; Case 6, Boxer, ear wound, single 3 mL gel 5 mg/mL): ≤ 15 min
- wound status ([1]; Case 6, 17 days after treatment): no sign of infection or inflammation
- hair regrowth, % of the original wound area [1, 6]: more than 90%
- wound outcome [1, 6]: complete wound closure
- scarring ([1]; Case 6, 139 days after treatment): no evidence of scarring
- wound status, ear wounds ([1]; Case 7, Jack Russell Terrier, 2 x 0.1 mL gel 5 mg/mL, 13 days after the first treatment): contracted significantly and had formed eschars
- time to full wound closure, ear wounds ([1]; Case 7, 2 x 0.1 mL gel 5 mg/mL): ≤ 29 days
- wound outcome, snout wound ([1]; Case 7, single 0.1 mL gel 5 mg/mL, 16 days after treatment): fully resolved
- wound resolution [2]: effective wound resolution with minimal scarring
- No. of dogs: Tissue deficit at wound site, Minor ([3]; 5 to 10% tissue deficit across the original wound area): 0
- No. of dogs: Tissue deficit at wound site, Nil or minimal ([3]; <5% tissue deficit across the original wound area): 15
- No. of dogs: Tissue deficit at wound site, Substantial ([3]; >10% tissue deficit across the original wound area): 0
- Average days from tumour slough to wound closure ([3]; wound size class 0.25 to 9 cm^2, 7 cases): 24 ± 16 days
- Average days from tumour slough to wound closure ([3]; wound size class 9 to 50 cm^2, 5 cases): 40 ± 15 days
- Average days from tumour slough to wound closure ([3]; wound size class >50 to 130 cm^2, 3 cases): 62 ± 18 days
- No. of dogs: Hair regrowth on wound area, Sparse ([3]; Hair covers <50% of original wound area): 7
- No. of dogs: Hair regrowth on wound area, Partial ([3]; Hair covers >50% of original wound area): 1
- No. of dogs: Hair regrowth on wound area, Full ([3]; Hair covers >95% of original wound area): 12
- No. of dogs: Scarring & skin thickening, Minor ([3]; Localised scar covering <10% of original wound area): 1
- No. of dogs: Scarring & skin thickening, Substantial ([3]; Scarring covering >10% of original wound area): 1
- No. of dogs: Scarring & skin thickening, Nil or minimal ([3]; Scarring not obvious visually or by touch): 13
- No. of dogs: Change in hair colour, No ([3]; healed wound site): 15
- No. of dogs: Change in hair colour, Yes ([3]; healed wound site): 0
- No. of dogs: Skin pigmentation, Hyperpigmentation ([3]; healed wound site): 0
- No. of dogs: Skin pigmentation, Hypopigmentation ([3]; healed wound site): 3
- No. of dogs: Skin pigmentation, Normal ([3]; healed wound site): 11
- No. of dogs: Skin pigmentation, Patchy ([3]; healed wound site): 1
